Measurements: PubChem BioAssay AID330 (DTP/NCI, 2004)
Where “and” joins values, the source holds several entries; their conditions need not be identical. Equal entries are not always repeated. Inconclusive results and toxic doses are left out. How the source made its calls: active means survival T/C of 150% or more; inactive means T/C below 125% in these data.

System: P388 leukemia ip, CD2F1 mice, survival T/C
Test: NCI In Vivo Anticancer Drug Screen. Data for tumor model P388 Leukemia (intraperitoneal) in CD2F1 (CDF1) mice
Conditions: endpoint: median survival time, higher = longer survival
How it was run: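 Mice carrying the transplanted tumor received test compound or vehicle. Survival was recorded in each group, and the value is the treated-group measurement divided by that of the vehicle-treated control group.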

[1] = dose: 50.0 mg/kg/injection, schedule: Q01DX009 (ip), vehicle: saline
[2] = dose: 50.0 mg/kg/injection, schedule: Q04DX003 (ip), vehicle: saline
[3] = dose: 100.0 mg/kg/injection, schedule: Q01DX009 (ip), vehicle: saline
[4] = dose: 100.0 mg/kg/injection, schedule: Q04DX003 (ip), vehicle: saline
[5] = dose: 100.0 mg/kg/injection, schedule: Q01DX001 (ip), vehicle: saline
[6] = dose: 200.0 mg/kg/injection, schedule: Q01DX001 (ip), vehicle: saline
[7] = dose: 400.0 mg/kg/injection, schedule: Q01DX001 (ip), vehicle: saline
[8] = dose: 50.0 mg/kg/injection, schedule: Q01DX009 (ip), vehicle: saline with Tween-80
[9] = dose: 200.0 mg/kg/injection, schedule: Q01DX009 (ip), vehicle: saline with Tween-80
[10] = dose: 12.5 mg/kg/injection, schedule: Q01DX005 (ip), vehicle: saline with Tween-80
[11] = dose: 25.0 mg/kg/injection, schedule: Q01DX005 (ip), vehicle: saline with Tween-80
[12] = dose: 50.0 mg/kg/injection, schedule: Q01DX005 (ip), vehicle: saline with Tween-80
[13] = dose: 60.0 mg/kg/injection, schedule: Q01DX005 (ip), vehicle: saline with Tween-80
[14] = dose: 120.0 mg/kg/injection, schedule: Q01DX005 (ip), vehicle: saline with Tween-80
[15] = dose: 240.0 mg/kg/injection, schedule: Q01DX005 (ip), vehicle: saline with Tween-80
[16] = dose: 100.0 mg/kg/injection, schedule: Q01DX009 (ip), vehicle: saline with Tween-80
[17] = dose: 200.0 mg/kg/injection, schedule: Q01DX009 (ip), vehicle: saline
[18] = dose: 50.0 mg/kg/injection, schedule: Q01DX009 (ip), vehicle: Klucel (hydroxypropylcellulose) (HPC)
[19] = dose: 100.0 mg/kg/injection, schedule: Q01DX009 (ip), vehicle: Klucel (hydroxypropylcellulose) (HPC)
[20] = dose: 200.0 mg/kg/injection, schedule: Q01DX009 (ip), vehicle: Klucel (hydroxypropylcellulose) (HPC)
[21] = dose: 200.0 mg/kg/injection, schedule: Q04DX003 (ip), vehicle: Klucel (hydroxypropylcellulose) (HPC)

Measured: T/C

NC(N)=N/N=C/C(Cl)Cl
inactive: dose: 25.0 mg/kg/injection, schedule: Q01DX009 (ip), vehicle: saline 109 % of control | dose: 25.0 mg/kg/injection, schedule: Q04DX003 (ip), vehicle: saline 100 % of control | [1] 100 % of control | [2] 100 % of control | [3] 118 % of control | [4] 100 % of control and 95 % of control

CCOC(=O)CNC(=O)OCCS(=O)CCOC(=O)NCC(=O)OCC
inactive: [5] 98 % of control | [6] 93 % of control | [7] 101 % of control

O=C1OCC/C1=C1/Nc2ccccc2NC1=O
inactive: [8] 89 % of control | [9] 91 % of control

Nc1nnc2nc(CC(=O)Cc3ccccc3)c(CC(=O)Cc3ccccc3)nn12
inactive: dose: 60.0 mg/kg/injection, schedule: Q01DX005 (ip), vehicle: saline 101 % of control | dose: 120.0 mg/kg/injection, schedule: Q01DX005 (ip), vehicle: saline 100 % of control | dose: 240.0 mg/kg/injection, schedule: Q01DX005 (ip), vehicle: saline 100 % of control

CCN(CC)CCOCC(=O)Nc1c(C)cccc1Cl
inactive: [2] 102 % of control and 113 % of control and 96 % of control | [4] 100 % of control and 101 % of control and 120 % of control | dose: 200.0 mg/kg/injection, schedule: Q04DX003 (ip), vehicle: saline 88 % of control and 92 % of control and 95 % of control

O=[C-]/C=C\[C-]=O.[C-]#[O+].[C-]#[O+].[C-]#[O+].[C-]#[O+].[Fe+2]
inactive: [10] 112 % of control | [11] 110 % of control | [12] 100 % of control

CCCCCCCCCC1c2[nH]c3ccccc3c2C(=O)NN1C(C)=O (stereo unspecified)
inactive: dose: 100.0 mg/kg/injection, schedule: Q01DX001 (ip), vehicle: Klucel (hydroxypropylcellulose) (HPC) 98 % of control | dose: 200.0 mg/kg/injection, schedule: Q01DX001 (ip), vehicle: Klucel (hydroxypropylcellulose) (HPC) 98 % of control | dose: 400.0 mg/kg/injection, schedule: Q01DX001 (ip), vehicle: Klucel (hydroxypropylcellulose) (HPC) 104 % of control

O=C1CSC=NN1c1ccccc1
inactive: [13] 102 % of control | [14] 92 % of control | [15] 108 % of control

O=C(CC(=O)NO)NO
inactive: [8] 106 % of control | [1] 115 % of control | [16] 108 % of control | [3] 110 % of control | [9] 108 % of control | [17] 108 % of control

Cc1ccc2c(c1)nc(-c1ccccn1)n2CCc1ccncc1
inactive: dose: 50.0 mg/kg/injection, schedule: Q01DX001 (ip), vehicle: saline with Tween-80 95 % of control | dose: 100.0 mg/kg/injection, schedule: Q01DX001 (ip), vehicle: saline with Tween-80 96 % of control | dose: 200.0 mg/kg/injection, schedule: Q01DX001 (ip), vehicle: saline with Tween-80 101 % of control

CC1(C)C(C=O)=CCC1CC(N)=O (stereo unspecified)
inactive: [13] 117 % of control | [14] 111 % of control

Cc1cc2ccccc2cc1N
inactive: [1] 106 % of control | [3] 100 % of control | [17] 97 % of control

C/C=C/N1C(=O)C2C=CC1C(C(=O)OC)=C2C(=O)OC (stereo unspecified)
inactive: [5] 100 % of control | [6] 99 % of control | [7] 94 % of control

O=C(OCC(OC(=O)c1ccccc1)C(OC(=O)c1ccccc1)C(OC(=O)c1ccccc1)C(OC(=O)c1ccccc1)c1nn[nH]n1)c1ccccc1 (stereo unspecified)
inactive: [10] 94 % of control | [11] 86 % of control | [12] 90 % of control and 100 % of control | dose: 100.0 mg/kg/injection, schedule: Q01DX005 (ip), vehicle: saline with Tween-80 100 % of control | dose: 200.0 mg/kg/injection, schedule: Q01DX005 (ip), vehicle: saline with Tween-80 96 % of control

C#CCOC(=O)C12CCC(C)(C)CC1C1=CCC3C4(C)CCC(O)C(C)(CO)C4CCC3(C)C1(C)CC2 (stereo unspecified)
inactive: [10] 101 % of control | [11] 94 % of control

O=C1NN=CC1CCCN=Cc1cc(Br)ccc1O (stereo unspecified)
inactive: [8] 96 % of control | [16] 104 % of control | [9] 114 % of control

FC(F)(F)c1cccc(OCC2CO2)c1 (stereo unspecified)
inactive: [18] 102 % of control | [19] 99 % of control | [20] 97 % of control

N#CCC(C#N)N1CCOCC1 (stereo unspecified)
inactive: dose: 25.0 mg/kg/injection, schedule: Q01DX009 (ip), vehicle: saline with Tween-80 100 % of control | [8] 100 % of control | [16] 100 % of control

O=c1[nH]cc(Cn2cccc3c(=O)ncnc2-3)c(=O)[nH]1
inactive: dose: 100.0 mg/kg/injection, schedule: Q01DX001 (ip), vehicle: suspension in saline 93 % of control | dose: 200.0 mg/kg/injection, schedule: Q01DX001 (ip), vehicle: suspension in saline 102 % of control

O=C1c2ccccc2C(=O)C1NOCCCCl
inactive: dose: 60.0 mg/kg/injection, schedule: Q01DX005 (ip), vehicle: Klucel (hydroxypropylcellulose) (HPC) 100 % of control | dose: 120.0 mg/kg/injection, schedule: Q01DX005 (ip), vehicle: Klucel (hydroxypropylcellulose) (HPC) 99 % of control | dose: 240.0 mg/kg/injection, schedule: Q01DX005 (ip), vehicle: Klucel (hydroxypropylcellulose) (HPC) 101 % of control

O=C(CCC(=O)Nc1cccc([N+](=O)[O-])c1)CC(=O)c1ccc(Cl)cc1
inactive: [13] 96 % of control | [14] 105 % of control | [15] 96 % of control

CN(C)CCCN1c2ccccc2CCc2ccccc21
inactive: [13] 115 % of control | [14] 109 % of control

[CH3][Sn]1([CH3])[O]C(=O)c2ccccc2C(=O)[O]1
inactive: dose: 12.5 mg/kg/injection, schedule: Q01DX001 (ip), vehicle: Klucel (hydroxypropylcellulose) (HPC) 102 % of control and 111 % of control | dose: 25.0 mg/kg/injection, schedule: Q01DX001 (ip), vehicle: Klucel (hydroxypropylcellulose) (HPC) 101 % of control and 102 % of control | dose: 50.0 mg/kg/injection, schedule: Q01DX001 (ip), vehicle: Klucel (hydroxypropylcellulose) (HPC) 100 % of control

O=[N+]([O-])c1ccc(S(=O)(=O)Nc2ccc(-c3ccccc3)cc2)cc1
inactive: dose: 100.0 mg/kg/injection, schedule: Q01DX009 (ip), vehicle: other 105 % of control | dose: 200.0 mg/kg/injection, schedule: Q01DX009 (ip), vehicle: other 100 % of control | dose: 400.0 mg/kg/injection, schedule: Q01DX009 (ip), vehicle: other 100 % of control

CSc1nnc2sc3cc(C)ccc3n12
inactive: [18] 102 % of control | [19] 103 % of control | [20] 102 % of control

S=C(N/N=C/c1ccccn1)Nc1ccccn1
inactive: dose: 130.0 mg/kg/injection, schedule: Q04DX003 (ip), vehicle: Klucel (hydroxypropylcellulose) (HPC) 117 % of control | [21] 123 % of control | dose: 300.0 mg/kg/injection, schedule: Q04DX003 (ip), vehicle: Klucel (hydroxypropylcellulose) (HPC) 107 % of control

C[C@@H]1C(=O)CC23COC(=O)C2=CCCC3[C@@]1(C)CCC1COC(=O)C1 (stereo partly specified)
inactive: dose: 12.5 mg/kg/injection, schedule: Q01DX005 (ip), vehicle: distilled water + alcohol 100 % of control | dose: 25.0 mg/kg/injection, schedule: Q01DX005 (ip), vehicle: distilled water + alcohol 100 % of control | dose: 50.0 mg/kg/injection, schedule: Q01DX005 (ip), vehicle: distilled water + alcohol 106 % of control | dose: 60.0 mg/kg/injection, schedule: Q01DX005 (ip), vehicle: distilled water + alcohol 101 % of control | dose: 100.0 mg/kg/injection, schedule: Q01DX005 (ip), vehicle: distilled water + alcohol 107 % of control | dose: 120.0 mg/kg/injection, schedule: Q01DX005 (ip), vehicle: distilled water + alcohol 108 % of control | dose: 240.0 mg/kg/injection, schedule: Q01DX005 (ip), vehicle: distilled water + alcohol 110 % of control

COc1cc2c(cc1OC)C1CC(=O)C(C3(O)C(=O)Nc4ccccc43)CN1CC2 (stereo unspecified)
inactive: dose: 100.0 mg/kg/injection, schedule: Q04DX003 (ip), vehicle: Klucel (hydroxypropylcellulose) (HPC) 99 % of control | [21] 99 % of control | dose: 400.0 mg/kg/injection, schedule: Q04DX003 (ip), vehicle: Klucel (hydroxypropylcellulose) (HPC) 112 % of control
